Measurements: patent US9492416B2, “Use of caftaric acid and lactic bacterium in food supplement for regulating skin pigmentation” (Nestec S.A., priority 2010, dated 2016)

Tested on: B16 murine melanocyte cell line
Test: Production of melanin by B16 murine melanocyte cell line
Assay type: cell-based
Settings: B16 melanocytes, 72 hours; Kojic acid at 400 μg/mL
Experimental: In order to evaluate the potential beneficial effect of ingredients towards skin de- or pro-pigmentation we used 2D culture of murine melanocytes (B16) and we performed 2 tests: 1—assessment of melanin production and 2—assessment of tyrosinase production.
1. The Cell Culture Conditions. • B16 cells were cultured in DMEM 1 g/L glucose without phenol red supplemented with 10% foetal calf serum, in a humidified chamber at 37° C. and containing 5% CO2.
2. The Production of Melanin by B16 Murine Melanocyte Cell Line. • Cells were incubated with the selected ingredients or the test references (Kojic acid at 400 μg/mL) for 72 hours, in the presence or absence of NDP-MSH an analog of MSH. The total quantity of melanin (extracellular and intracellular) was evaluated by measurement of the optical density at 405 nm of each sample against melanin standards in presence or in absence of NDP-MSH.
Caftaric acid has been pre-treated with La-1 [(spray dried culture Lactobacillus Johnsonii CNCM I-1225, 1.19E10 cfu/g) for 24 hours in a thermomixer at 40° C., under shaking conditions. After incubation, samples have been centrifuged 5 minutes at 3000 g. After this treatment the probiotic as such is not present anymore in the sample however the presence of its metabolites can't be excluded.

Structure (SMILES): O=c1cc(CO)occ1O [Kojic acid]
- melanin production (in words): decrease in melanin production
